Experimental data published in publication PMC9863657, “A Tailored Strategy to Crosslink the Aspartate Transcarbamoylase Domain of the Multienzymatic Protein CAD” (Molecules, 2023).

Tests used:
[1] = molecular target: T1, ctATC (ATC domain of C. thermophilum CAD-like protein) (Thermochaetoides thermophila, UniProt G0S583); assay: colorimetric carbamoyl aspartate assay; type: biochemical; conditions: 5 mM CP; 50 mM Tris-acetate pH 8.3; 25 °C; 0.1 µM enzyme; substrate inhibition model; range printed jointly for WT and double mutant; read-out: S0.5^Asp
T1 construct: gene CTHT_0032600; isolated ATC domain aa 1939-2253; N-terminal His6-MBP cut with PreScission; E. coli BL21(DE3) pLysS; homotrimer, 119 kDa by SEC (ctATC2Cys, similar to WT)

[2] = molecular target: T2, ctATC (ATC domain of C. thermophilum CAD-like protein) (Thermochaetoides thermophila, UniProt G0S583, N2045C/R2238C); assay: colorimetric carbamoyl aspartate assay; type: biochemical; conditions: 5 mM CP; 50 mM Tris-acetate pH 8.3; 25 °C; 0.1 µM enzyme; substrate inhibition model; range printed jointly for WT and double mutant; disulfide-crosslinked trimer; read-out: S0.5^Asp
T2 construct: gene CTHT_0032600; isolated ATC domain aa 1939-2253; N-terminal His6-MBP cut with PreScission; E. coli BL21(DE3) pLysS; homotrimer, 119 kDa by SEC (ctATC2Cys, similar to WT)

[3] = molecular target: T1, ctATC (ATC domain of C. thermophilum CAD-like protein); assay: differential scanning fluorimetry; type: binding; conditions: 1 mM PALA; 5 µM protein; pH 7.0; Tm without PALA 53.9 °C; transition state analog
[4] = molecular target: T2, ctATC (ATC domain of C. thermophilum CAD-like protein); assay: differential scanning fluorimetry; type: binding; conditions: 1 mM PALA; 5 µM protein; pH 7.0; disulfide-crosslinked trimer; Tm without PALA 73.5 °C; transition state analog
[5] = molecular target: ATC domain of C. thermophilum CAD-like protein with mutations N2045C and R2238C (ctATC2Cys) (Chaetomium thermophilum); assay: crystal structure; crystals of ctATC2Cys free and with 2 mM carbamoyl phosphate (CP), space group P4(3)32, one subunit per asymmetric unit
[6] = molecular target: ATC domain of C. thermophilum CAD-like protein with mutations N2045C and R2238C (ctATC2Cys) (Chaetomium thermophilum); assay: SEC; Superdex 200 10/300 GL in 20 mM Tris-HCl pH 8.0, 150 mM NaCl, room temperature; molecular weight estimated from calibration with standards
[7] = molecular target: full-length C. thermophilum CAD-like protein (Chaetomium thermophilum); assay: not stated; unpublished results: recombinant full-length protein isolated as hexameric particles

T1 sequence (G0S583 entry or part of it): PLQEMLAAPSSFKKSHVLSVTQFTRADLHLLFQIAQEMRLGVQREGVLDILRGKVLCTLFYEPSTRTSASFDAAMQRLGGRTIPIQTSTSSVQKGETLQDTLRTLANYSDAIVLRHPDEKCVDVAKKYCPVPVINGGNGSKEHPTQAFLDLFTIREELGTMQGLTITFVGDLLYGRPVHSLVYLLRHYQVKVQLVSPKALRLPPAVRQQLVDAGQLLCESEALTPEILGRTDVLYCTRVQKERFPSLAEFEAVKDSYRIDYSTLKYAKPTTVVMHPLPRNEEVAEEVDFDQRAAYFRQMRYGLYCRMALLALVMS
T2 sequence (G0S583 entry or part of it N2045C/R2238C): as the sequence (G0S583 entry or part of it) above, with N107C, R300C counted along it

## N[C@@H](CC(=O)O)C(=O)O [Asp, aspartate]
[1]
  Km: 1500 to 2000 µM
[2]
  Km: 1500 to 2000 µM

## O=C(O)C[C@H](NC(=O)CP(=O)(O)O)C(=O)O [PALA]
[3]
  Tm: ~ 90 °C
[4]
  Tm: ~ 90 °C

## ATC domain of C. thermophilum CAD-like protein with mutations N2045C and R2238C (ctATC2Cys) (domain or fragment)
[5]
  stoichiometry N: 3
[6]
  stoichiometry N: 3

## full-length C. thermophilum CAD-like protein (natural protein)
[7]
  stoichiometry N: 6
